Experimental data as given in US4948791A, “Novel Cytotoxic cyclic depsipeptides from the tunicate trididemnum solidum” (priority 1989, dated 1990).
≈ marks a conversion by molar mass, not a printed value. Numbered stars: 1 amine (or outer) side, 2 acyl side, 3 side chain; on linkers, the order of the positions; unused ones are H or OH. Bridge positions count the residues as written; N and C are the ends. Square brackets hold non-standard residues; d marks the D form. Peptide text beside a SMILES is read from it. X1 = CC[C@H](C)[C@@H](N[*:1])[C@@H](O)CC(=O)O[C@H](C(=O)[C@H](C)C(=O)[*:2])C(C)C; NMeY = CN[C@@H](Cc1ccc(O)cc1)C(=O)O; dNMeL = CN[C@H](CC(C)C)C(=O)O

System: L1210 mouse leukemia cells
Assay: Three-day L1210 cell growth inhibition assay (at 37° C.)
Assay type: cell-based
Details: for growth of L1210 mouse leukemia cells in vitro: statement in words
Procedure: Three-day L1210 cell growth inhibition assay (at 37° C.)

[1] = three-day L1210 cell growth inhibition, 37° C., first ID50/ID90 column pair of Table 1
[2] = three-day L1210 cell growth inhibition, 37° C., second ID50/ID90 column pair of Table 1
[3] = three-day L1210 cell growth inhibition assay

| Compound | ID50 [1] [ng/mL] | ID90 [1] [µg/mL] | ID50 [2] [ng/mL] | ID90 [2] [µg/mL] | growth of L1210 mouse leukemia cells in vitro | ID50 [3] [ng/mL] |
| --- | --- | --- | --- | --- | --- | --- |
| didemnin D | 3.4 | 0.015 | 4.2 | 0.016 |  |  |
| CC[C@H](C)[C@H]1NC(=O)[C@@H](NC(=O)[C@@H](CC(C)C)NC)[C@@H](C)OC(=O)[C@H](Cc2ccc(OC)cc2)N(C)C(=O)[C@@H]2CCCN2C(=O)[C@H](CC(C)C)NC(=O)[C@@H](C)C(=O)[C@H](C(C)C)OC(=O)C[C@@H]1O [Didemnin A, didemnin A] (H-[dNMeL]T[X1]LP[NMeY](Me); ester 2-C) | 7.8 (≈ 0.00827 µM) | 0.058 (≈ 0.0615 µM) |  |  |  |  |
| 3-hydroxydecanoyl-L-Gln-L-Gln-L-Gln-L-Gln-didemnin B [Didemnin Y] | 6.4 | 0.021 | 4.8 | 0.02 | inhibit the growth | 6.4 |
| (R)-3-hydroxydecanoyl-L-Gln-L-Gln-L-Gln-didemnin B [Didemnin X] | 4 | 0.017 | 4.8 | 0.017 | inhibit the growth | 4 |
| didemnin E | 1.1 | 0.0076 | 0.8 | 0.0056 |  |  |
| CC[C@H](C)[C@H]1NC(=O)[C@@H](NC(=O)[C@@H](CC(C)C)N(C)C(=O)[C@@H]2CCCN2C(=O)C(C)O)[C@@H](C)OC(=O)[C@H](Cc2ccc(OC)cc2)N(C)C(=O)[C@@H]2CCCN2C(=O)[C@H](CC(C)C)NC(=O)[C@@H](C)C(=O)[C@H](C(C)C)OC(=O)C[C@@H]1O (stereo partly drawn) [Didemnin B, didemnin B] |  |  | 3.8 (≈ 0.00342 µM) | 0.015 (≈ 0.0135 µM) |  |  |
